The target in test [1] is KRAS (G12V)/CRAF (Homo sapiens (Human), UniProt P01116, G12V). Kind of test: TR-FRET biochemical KRAS:CRAF protein:protein interaction assay, KRAS (G12V). The settings on record: GMPPNP loaded Biotin-KRAS (G12V), FLAG CRAF RBD; read-out: TR-Fret_PPI KRAS (G12V)/CRAF IC50. It is filed as binding. As for the experimental part: (§1) The effect of test compounds on KRAS and CRAF protein: protein interaction (PPI) was measured by time resolved fluorescence resonance energy transfer (TR-FRET) Ras binding domain (RBD) assay, which uses a signal generated through fluorescent resonance energy transfer between a donor and an acceptor molecule when in close proximity to each other. Interference from buffer, media, etc. is reduced by dual-wavelength detection; the energy pulse from the excitation source is followed by a time delay, which allows interfering short-lived fluorescence to decay (Degorce et al. 2009).
KRAS (G12V)/CRAF, sequence (P01116-2 other isoform, or with tags, fused parts or gaps G12V): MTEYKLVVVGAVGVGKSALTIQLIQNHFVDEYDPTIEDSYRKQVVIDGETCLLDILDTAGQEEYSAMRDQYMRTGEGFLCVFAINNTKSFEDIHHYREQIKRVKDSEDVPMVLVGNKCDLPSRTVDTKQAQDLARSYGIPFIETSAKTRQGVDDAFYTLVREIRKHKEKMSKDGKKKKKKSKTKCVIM
(§2) The KRAS: CRAF PPI assay can be utilized to identify KRAS ‘ON’ state inhibitors, as the KRAS protein is loaded with GMPPNP (a non-hydrolyzable GTP analog), which represents the active KRAS ‘ON’ state. FLAG-tagged CRAF RBD binding to the GMPPNP loaded biotin-tagged KRAS will result in a fluorescence energy transfer from the donor (Tb-anti-FLAG, emission 620 nm) to the acceptor (SA-XL665, emission 665 nm). Disruption of KRAS and CRAF binding will reduce the TR-FRET signal.
(§3) Test compound was dissolved in DMSO to create a 1 mM stock solution. A 45 μL volume of stock solution was transferred to a 384well polypropylene plate. A 3fold, 10point dilution was performed by transferring 15 μL of test compound solution into 30 μL of DMSO.
(§4) Assay buffer A was prepared with […] Hepes, pH7.3, 0.002% Tween 20, 0.1% BSA, […] NaCl, 5 mM MgCl2, and 10 uM GMP-PNP. 4× KRAS Solution was prepared with 80 nM of Biotin-KRAS (G12D/V), GMPPNP loaded or Biotin-KRAS (WT), GMPPNP loaded protein in assay buffer A. 4× Raf RBD Solution was prepared with 400 nM FLAG CRAF RBD in assay buffer A. 2× Detection Mixture was prepared with 2 nM Tb-anti-FLAG antibody and 10 nM and 10 nM SA-XL665 in assay buffer A.
(§5) A volume of 100 nL of 100× test compound working solution or DMSO vehicle control solution was dispensed to each well (duplicate for each concentration) of a 384-well ProxiPlate Plus assay plate. A volume of 2.5 μL of 4× KRAS Solution was added to each well of the assay plate for a final concentration of 20 nM Biotin-KRAS (G12D/V),GMPPNP loaded or 20 nM Biotin-KRAS (WT), GMPPNP. For low control, add 2.5 μL of assay buffer (no KRAS protein). Pre-incubate assay plate for 30 minutes at room temperature. Following pre-incubation of test compound or DMSO with Biotin-KRAS (G12D/V),GMPPNP loaded or Biotin-KRAS (WT),GMPPNP, a volume of 2.5 μL of 4× FLAG cRAF RBD Solution was added to each well of the assay plate for a final concentration of 100 nM FLAG CRAF RBD. The assay plate was subjected to centrifuge at 1000 rpm for 1 minute and pre-incubate assay plate for 150 minutes at room temperature. Following the pre-incubation with FLAG cRAF RBD, a volume of 5 μl of 2× Detection Mixture was added to each well of the assay plate for a final concentration of 1 nM Tb-anti-FLAG and 5 nM SA-XL665. The assay plate was centrifuged at 1000 rpm for 1 minute and incubated for 90 minutes at room temperature. TR-FRET signal was measured on a BioTek Synergy Neo2 microplate reader (excitation at 340 nm, emission at 665 nn and 620 nm).
(§6) TR-FRET ratios were calculated by dividing the acceptor emission value (665 nm) by the donor emission value (620 nm) for each sample.
(§7) Percent inhibition was calculated by multiplying the normalized TR-FRET ratio by 100, where TR-FRET ratio^HIGH was the TR-FRET ratio obtained from wells with 1% DMSO and complete reaction mixture, TR-FRET ratio^LOW was the ratio obtained from wells with 1% DMSO and reaction mixture without KRAS protein and TR-FRET ratio^SAMPLE was the TR-FRET ratio from wells with test compound and complete reaction mixture. The IC50 values were calculated from normalized TR-FRET ratios with the Levenberg-Marquardt 4 parameter fitting procedure.
(§8) This assay quantifies the interaction of a KRAS mutant protein (e.g., G12V) with the CRAF Ras-binding domain (RBD). […]
A general note: In TR-FRET formats the signal depends on donor and acceptor labels being close together.

For test [2], the target named is KRAS (G12D)/CRAF (Homo sapiens (Human), UniProt P01116, G12D). The test can be described thus: TR-FRET biochemical KRAS:CRAF protein:protein interaction assay, KRAS (G12D). It is filed as binding. The conditions noted are these: GMPPNP loaded Biotin-KRAS (G12D), FLAG CRAF RBD; read-out: TR-Fret_PPI KRAS (G12D)/CRAF IC50. The method, then:
as §1, §2, §3, §4, §5, §6, §7, §8

Test [3] deals with KRAS G12V dependent lung adenocarcinoma cell line, NCI-H441. The test can be described thus: Cellular pERK (Thr202/Tyr204) FRET/HTRF assay. Format: cell-based. The settings on record: Homo sapiens, NCI-H441, cellular pERK (Thr202/Tyr204) HTRF, NCI-H441 cells. Summed up:
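Phospho-ERK1/2 (Thr202/Tyr204) quantified by two-antibody HTRF in lysed NCI-H441 cells. Cells seeded overnight, treated with test compounds for 1 hr at 37 °C against DMSO control, then lysed and detected at room temperature; IC50 obtained by curve fitting.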

KRAS (G12D)/CRAF, sequence (P01116-2 other isoform, or with tags, fused parts or gaps G12D): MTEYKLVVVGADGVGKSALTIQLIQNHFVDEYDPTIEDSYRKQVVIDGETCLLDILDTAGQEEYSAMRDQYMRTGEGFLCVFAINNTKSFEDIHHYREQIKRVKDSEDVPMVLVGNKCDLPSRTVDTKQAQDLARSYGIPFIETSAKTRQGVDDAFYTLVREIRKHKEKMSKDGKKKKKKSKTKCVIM

Turning to `[2H]C([2H])(Oc1nc(N2CCOC[C@@H]3[C@@H](F)[C@@H]32)c2c(OC)nc(-c3cc(N)cc4ccc(F)c(C#C)c34)c(F)c2n1)[C@@]12CCCN1C[C@H](F)C2` [Example 223, 5-ethynyl-6-fluoro-4-(8-fluoro-4-((1R,7R,8R)-8-fluoro-5-oxa-2-azabicyclo[5.1.0]octan-2-yl)-2-(((2R,7aS)-2-fluorotetrahydro-1H-pyrrolizin-7a(5H)-yl)methoxy-d2)-5-methoxypyrido[4,3-d]pyrimidin-7-yl)naphthalen-2-amine], the IC50 is 3000 nM in test [1], 3000 nM in test [2] and 500 to 10000 nM in test [3].

Turning to `[2H]C([2H])(Oc1nc(N2CCOC[C@@H]3[C@H](F)[C@@H]32)c2cnc(-c3cc(N)cc4ccc(F)c(C#C)c34)c(F)c2n1)[C@@]12CCCN1C[C@H](F)C2` [Example 224, 5-ethynyl-6-fluoro-4-(8-fluoro-4-((1R,7R,8S)-8-fluoro-5-oxa-2-azabicyclo[5.1.0]octan-2-yl)-2-(((2R,7aS)-2-fluorotetrahydro-1H-pyrrolizin-7a(5H)-yl)methoxy-d2)pyrido[4,3-d]pyrimidin-7-yl)naphthalen-2-amine], the IC50 in test [1] was above 3000 nM; in test [2], above 3000 nM; in test [3], 500 to 10000 nM.

For `[2H]C([2H])(Oc1nc(N2CCOC[C@H]3[C@@H](F)[C@H]32)c2cnc(-c3cc(N)cc4ccc(F)c(C#C)c34)c(F)c2n1)[C@@]12CCCN1C[C@H](F)C2` [Example 225, 5-ethynyl-6-fluoro-4-(8-fluoro-4-((1S,7S,8R)-8-fluoro-5-oxa-2-azabicyclo[5.1.0]octan-2-yl)-2-(((2R,7aS)-2-fluorotetrahydro-1H-pyrrolizin-7a(5H)-yl)methoxy-d2)pyrido[4,3-d]pyrimidin-7-yl)naphthalen-2-amine], the IC50 in test [1] was 2910 nM; in test [2], 264 nM; in test [3], below 50 nM.

Regarding `[2H]C([2H])(Oc1nc(N2CCOC[C@H]3[C@@H](Cl)[C@H]32)c2cnc(-c3cc(N)cc4ccc(F)c(C#C)c34)c(F)c2n1)[C@@]12CCCN1C[C@H](F)C2` [Example 247, 4-(4-((1S,7S,8R)-8-chloro-5-oxa-2-azabicyclo[5.1.0]octan-2-yl)-8-fluoro-2-(((2R,7aS)-2-fluorotetrahydro-1H-pyrrolizin-7a(5H)-yl)methoxy-d2)pyrido[4,3-d]pyrimidin-7-yl)-5-ethynyl-6-fluoronaphthalen-2-amine], the IC50 in test [1] is 3000 nM; in test [2], 1390 nM; in test [3], 50 to 500 nM.

For `[2H]C([2H])(Oc1nc(N2CCOC[C@H]3[C@H](Cl)[C@H]32)c2cnc(-c3cc(N)cc4ccc(F)c(C#C)c34)c(F)c2n1)[C@@]12CCCN1C[C@H](F)C2` [Example 248, 4-(4-((1S,7S,8S)-8-Chloro-5-oxa-2-azabicyclo[5.1.0]octan-2-yl)-8-fluoro-2-(((2R,7aS)-2-fluorotetrahydro-1H-pyrrolizin-7a(5H)-yl)methoxy-d2)pyrido[4,3-d]pyrimidin-7-yl)-5-ethynyl-6-fluoronaphthalen-2-amine], the IC50 is 52.6 nM in test [1], 8.25 nM in test [2] and below 50 nM in test [3].

Turning to `[2H]C([2H])(Oc1nc(N2CCOC[C@@H]3[C@@H](Cl)[C@@H]32)c2cnc(-c3cc(N)cc4ccc(F)c(C#C)c34)c(F)c2n1)[C@@]12CCCN1C[C@H](F)C2` [Example 249, 4-(4-((1R,7R,8R)-8-chloro-5-oxa-2-azabicyclo[5.1.0]octan-2-yl)-8-fluoro-2-(((2R,7aS)-2-fluorotetrahydro-1H-pyrrolizin-7a(5H)-yl)methoxy-d2)pyrido[4,3-d]pyrimidin-7-yl)-5-ethynyl-6-fluoronaphthalen-2-amine], the results for the IC50 in test [1], in test [2] and in test [3] were 3000 nM, 648 nM and below 50 nM, respectively.

In the case of `[2H]C([2H])(Oc1nc(N2CCOC[C@@H]3[C@H](Cl)[C@@H]32)c2cnc(-c3cc(N)cc4ccc(F)c(C#C)c34)c(F)c2n1)[C@@]12CCCN1C[C@H](F)C2` [Example 250, 4-(4-((1R,7R,8S)-8-chloro-5-oxa-2-azabicyclo[5.1.0]octan-2-yl)-8-fluoro-2-(((2R,7aS)-2-fluorotetrahydro-1H-pyrrolizin-7a(5H)-yl)methoxy-d2)pyrido[4,3-d]pyrimidin-7-yl)-5-ethynyl-6-fluoronaphthalen-2-amine], the IC50 was 3000 nM in test [1], 1670 nM in test [2] and 50 to 500 nM in test [3].

As for `[2H]C([2H])(Oc1nc(N2CCCO[C@H]3[C@H](Cl)[C@H]32)c2cnc(-c3cc(N)cc4ccc(F)c(C#C)c34)c(F)c2n1)[C@@]12CCCN1C[C@H](F)C2` [Example 316, 4-(4-((1R,7S,8R)-8-Chloro-2-oxa-6-azabicyclo[5.1.0]octan-6-yl)-8-fluoro-2-(((2R,7aS)-2-fluorotetrahydro-1H-pyrrolizin-7a(5H)-yl)methoxy-d2)pyrido[4,3-d]pyrimidin-7-yl)-5-ethynyl-6-fluoronaphthalen-2-amine], the IC50 was 51.2 nM in test [1], 14.1 nM in test [2] and below 50 nM in test [3].

For the compound `[2H]C([2H])(Oc1nc(N2CCCO[C@@H]3[C@@H](Cl)[C@@H]32)c2cnc(-c3cc(N)cc4ccc(F)c(C#C)c34)c(F)c2n1)[C@@]12CCCN1C[C@H](F)C2` [Example 317, 4-(4-((1S,7R,8S)-8-chloro-2-oxa-6-azabicyclo[5.1.0]octan-6-yl)-8-fluoro-2-(((2R,7aS)-2-fluorotetrahydro-1H-pyrrolizin-7a(5H)-yl)methoxy-d2)pyrido[4,3-d]pyrimidin-7-yl)-5-ethynyl-6-fluoronaphthalen-2-amine], the IC50 is 3000 nM in test [1], 3000 nM in test [2] and 50 to 500 nM in test [3].

`[2H]C([2H])(Oc1nc(N2CCOC[C@@H]3[C@@H](Cl)[C@@H]32)c2cnc(-c3cc(N)cc4ccc(F)c(C#C)c34)c(F)c2n1)[C@@]12CCCN1[C@H](C)[C@H](F)C2` [Example 339, 4-(4-((1R,7R,8R)-8-chloro-5-oxa-2-azabicyclo[5.1.0]octan-2-yl)-8-fluoro-2-(((2R,3R,7aS)-2-fluoro-3-methyltetrahydro-1H-pyrrolizin-7a(5H)-yl)methoxy-d2)pyrido[4,3-d]pyrimidin-7-yl)-5-ethynyl-6-fluoronaphthalen-2-amine]: the IC50 in test [1] was at least 10000 nM; in test [2], 3000 nM; in test [3], 500 to 10000 nM.

Source of the values: US20250282799A1, “SUBSTITUTED PYRIDO[4,3-d]PYRIMIDINES AS KRAS MODULATORS” (Alterome Therapeutics, Inc., priority 2023, published 2025).
